Reference: patent US4228304A, “Novel cyclohexanecarboxylic acid and its derivatives” (Hisamitsu Pharmaceutical Co. Inc., priority 1977, dated 1980)

Tests used:
[1] = Acute toxicity (dog); format: in vivo; conditions: in vivo, po; male dog
[2] = test system: dog; assay: Acute toxicity (dog); format: in vivo; conditions: female dog, p.o.; 30240 min
[3] = Acute toxicity (mouse); conditions: in vivo
Experimental: (§1) Each test compound suspended in 0.5% tragacanth gum-saline was administered orally, subcutaneously or intraperitoneally to animals ddY strain mouse and Wistar strain rats. The 50% lethal dose and the 95% confidence limit were calculated by Litchfield-Wilcoxon's method from the death of animals in 3 weeks following administration.

[4] = test system: passive cutaneous anaphylaxis in rat; assay: Homologeous passive cutaneous anaphylaxis in rat; format: in vivo, rat (Wistar strain); conditions: 100 mg/kg, orally; exuded pigment vs control
Experimental: (2) Homologeous passive cutaneous anaphylaxis in rat Each test compound suspended in 0.5% tragacanth gum-distilled water was administered orally to a group of five male Wistar strain rats (body weight 150-200 g). After one hour 0.1 ml of 5% anti-Dinitrophinol conpled Ascaris rat IgE serum-physiological sodium chloride solution was injected intradermally to dorsum of the rat. […] The animals were sacrificed by decapitation 30 minutes after the injection. Thereafter the skin of the animals were removed and the amount of the pigment exuded into the inflamed skin was determined. The percent inhibitions were calculated by the ratio of the amounts of exuded pigments to the control.

[5] = Acute toxicity (rabbit); conditions: in vivo, po; female rabbit
[6] = test system: Picryl Chloride induced contact dermatitis; assay: Picryl Chloride induced contact dermatitis; format: in vivo, mouse (ddY strain); conditions: Mus musculus, po; 100 mg/kg, orally; ear swelling 24 hours after second challenge
Experimental: (3) Picryl Chloride induced contact dermatitis
At first 0.1 ml of 7% picryl chloride-ethanol solution was applied to skin of the depilated abdomens (area 2.5×15 mm) of ddY-strain male mice (body weight 20-22 g). After one week each 0.02 ml of 1% picryl chloride-olive oil solution was applied topically to the ears of the mouse. […] After three days 0.1 ml of 7% picryl chloride-ethanol solution was applied again to the depilated abdomens of the mice. After one week, each 0.02 ml of 1% picryl chloride-olive oil solution per ear were applied topically to the bilateral ears, and at same time, the test compounds were administered orally. Immediately before and 24 hours after the second challenge, the thickness of the ears was measured and the swelling was calculated. The percent inhibitions were calculated by the ratio of the each swelling to the control.

[7] = test system: rat adjuvant polyarthritis; assay: Effect on rat adjuvant polyarthritis; format: in vivo, rat (Sprague Dawley strain); conditions: oral daily: Compound No. 1 200 mg/kg, Ibuprofen 50 mg/kg, Prednisolone 0.5 mg/kg
Experimental: (5) Effect on rat adjuvant polyarthritis
A group of eight to ten male Sprague Dawley strain rats (body weight 240-280 g) were used. 0.1 ml of Complete Freuind's adjuvant (CFA, Mycobacterium butyricum, 100 mg/10 cc) was injected intradermally to the right hind sole.

[8] = test system: lung fragment of guinea pig; assay: Mediator (histamine) release on lung fragment of guinea pig; format: cell-based, guinea pig (Hartley strain); conditions: 10^-4 g/ml
Experimental: (4) Mediator release on lung fragment of guinea pig.
A group of Hartley strain male guinea pigs (body weight 250-300 g) were administered intraperitoneally anti-BPO-BGG IgE serum. The animals were sacrificed by decapitation, and those sensitized lungs were isolated for use. […] Following 10 minute incubation, the amount of the released histamine were determined by bioassay.

[9] = Acute toxicity (rat); conditions: in vivo
Experimental: as §1

Structure (SMILES): CC(C)CCC[C@H]1CC[C@@](C)(C(=O)O)CC1 [Compound No. 1, cis-4-isohexyl-1-methylcyclohexanecarboxylic acid]
- LD50 at 504 h [1]: > 5000 mg/kg
- LD50 [2]: > 5000 mg/kg
- LD50 at 504 h ([3]; ip, female mouse): 998 mg/kg
- LD50 at 504 h ([3]; ip, male mouse): 1110 mg/kg
- LD50 at 504 h ([3]; po, female mouse): 6390 mg/kg
- LD50 at 504 h ([3]; po, male mouse): 5950 mg/kg
- LD50 at 504 h ([3]; sc, female mouse): > 10000 mg/kg
- LD50 at 504 h ([3]; sc, male mouse): > 10000 mg/kg
- Inhibition [4]: 28%
- LD50 at 504 h [5]: > 6000 mg/kg
- inhibition in vivo at 100 mg/kg [6]: 49%
- Swelling percent of left hind paw (non-treatment of CFA) ([7]; day 0): -1.3±1.8%
- Swelling percent of right hind paw (treatment of CFA) ([7]; day 0): 118.1± 5.0%
- Swelling percent of left hind paw (non-treatment of CFA) ([7]; day 1): -3.0±1.2%
- Swelling percent of right hind paw (treatment of CFA) ([7]; day 1): 100.0± 5.3%
- Swelling percent of left hind paw (non-treatment of CFA) ([7]; day 4): -0.8±2.0%
- Swelling percent of right hind paw (treatment of CFA) ([7]; day 4): 255.4±13.8%
- Swelling percent of left hind paw (non-treatment of CFA) ([7]; day 7): 4.5±3.3%
- Swelling percent of right hind paw (treatment of CFA) ([7]; day 7): 216.3±12.8%
- Swelling percent of left hind paw (non-treatment of CFA) ([7]; day 10): 11.8±2.4%
- Swelling percent of right hind paw (treatment of CFA) ([7]; day 10): 173.8± 7.1%
- Swelling percent of left hind paw (non-treatment of CFA) ([7]; day 14): 13.3±1.6%
- Swelling percent of right hind paw (treatment of CFA) ([7]; day 14): 169.5± 8.0%
- Swelling percent of left hind paw (non-treatment of CFA) ([7]; day 17): 13.2±1.7%
- Swelling percent of right hind paw (treatment of CFA) ([7]; day 17): 166.0± 8.6%
- Swelling percent of left hind paw (non-treatment of CFA) ([7]; day 21): 8.5±2.0%
- Swelling percent of right hind paw (treatment of CFA) ([7]; day 21): 163.0±10.5%
- inhibition (released histamine) [8]: 24.2%
- LD50 at 504 h ([9]; ip, female rat): 1690 mg/kg
- LD50 at 504 h ([9]; ip, male rat): 2070 mg/kg
- LD50 at 504 h ([9]; po, female rat): > 10000 mg/kg
- LD50 at 504 h ([9]; po, male rat): > 10000 mg/kg
- LD50 at 504 h ([9]; sc, female rat): > 10000 mg/kg
- LD50 at 504 h ([9]; sc, male rat): > 10000 mg/kg
